Assay results from paper PMC13288469, “Bile acids accumulate norovirus-like particles and enhance binding to and entry into human enteric epithelial cells” (Journal of Virology, 2026).

Molecular target: T1, HuNoV GII.4 VLP (Human calicivirus NLV/DIJON171/96, UniProt Q8QY55)
T1 construct: full VP1 virus-like particle, self-assembled, from baculovirus (Bac-to-Bac) infected SF-9 cells, sucrose gradient purified; amine-coupled to CM5 chip
Test: SPR, Biacore T-200, VLP immobilized on CM5 chip
Format: binding
Text: SPR, Biacore T-200, VLP immobilized on CM5 chip on HuNoV GII.4 VLP

Compound | Kd [µM]
C[C@H](CCC(=O)NCCS(=O)(=O)O)[C@H]1CC[C@H]2[C@@H]3[C@H](O)C[C@@H]4C[C@H](O)CC[C@]4(C)[C@H]3CC[C@]12C [TCDCA] | 236 ± 58
C[C@H](CCC(=O)NCCS(=O)(=O)O)[C@H]1CC[C@H]2[C@@H]3CC[C@@H]4C[C@H](O)CC[C@]4(C)[C@H]3C[C@H](O)[C@]12C [TDCA] | 308 ± 29.7
C[C@H](CCC(=O)NCCS(=O)(=O)O)[C@H]1CC[C@H]2[C@@H]3CC[C@@H]4C[C@H](O)CC[C@]4(C)[C@H]3CC[C@]12C [TLCA] | 64 ± 9.9
C[C@H](CCC(=O)NCC(=O)O)[C@H]1CC[C@H]2[C@@H]3CC[C@@H]4C[C@H](O)CC[C@]4(C)[C@H]3C[C@H](O)[C@]12C [GDCA] | 286 ± 64.3
C[C@H](CCC(=O)O)[C@H]1CC[C@H]2[C@@H]3CC[C@@H]4C[C@H](O)CC[C@]4(C)[C@H]3C[C@H](O)[C@]12C [DCA] | 176 ± 4.9
C[C@H](CCC(=O)NCC(=O)O)[C@H]1CC[C@H]2[C@@H]3[C@H](O)C[C@@H]4C[C@H](O)CC[C@]4(C)[C@H]3CC[C@]12C [GCDCA] | 123 ± 24
